Measurements: patent US8748423B2, “Compositions and methods for the prevention and treatment of cancer” (Kinex Pharmaceuticals, LLC, priority 2010, dated 2014)

Legend:
[1] = tested on: lung cancer cell line H460; assay: standard tumor growth inhibition assay, H460; type: cell-based; details: Homo sapiens, NCI-H460, read-out: GI50 (H460)
Method: (§1) These GI50's were determined using the standard tumor growth inhibition assays, similar to that described in detail for the HT29 cell line above, and the following cell lines: colon tumor cell lines KM12, lung cancer cell line H460 and lung cancer cell line A549 (all are NCI standard tumor cell lines).

[2] = tested on: colon tumor cell lines KM12; assay: standard tumor growth inhibition assay, KM12; type: cell-based; details: Homo sapiens, KM12, read-out: GI50 (KM12)
Method: as §1

c-Src 3T3 cells = assay: BrdU cell growth inhibition assay, c-Src 3T3; type: cell-based, mouse
Method: (§2) The GI50s for several of the compounds of the invention were assayed as described herein.
The c-Src 3T3 is a mouse fibroblast NIH 3T3 normal cell line that has been transfected with a point-mutant of human c-Src wherein tyrosine 527 has been converted to a phenylalanine. This mutation results in “constitutively active” c-Src because phosphorylation on tyrosine 527 results in auto-inhibition of Src by having it fold back on its own SH2 domain. With a Phe there, this phosphorylation can't occur and therefore auto-inhibition can't occur. Thus, the always fully active mutant Src then converts the normal mouse fibroblasts into rapidly growing tumor cells. […]
In the BrdU Assay for cell growth inhibition, quantitation of cell proliferation was based on the measurement of BrdU incorporation during DNA synthesis. […]
The growth inhibition (GI) is determined from the formula GI=(T0−Tn×100/T0−CONn) where T0 is the BrdU growth of untreated cells at time “0”, Tn is the BrdU growth of treated cells at day “n” and CONn is the control BrdU growth of control cells at day “n”. […]
Seeded 96 well plates were allowed to attach overnight for 18-24 hours, either at 37° C. and 5% CO2 for HT-29 or at 37° C. and 10% CO2 for c-Src 3T3. Approx 18-24 hours after seeding, the initial growth of cells (T0) was determined for untreated cells using the BrdU assay. […]

[3] = body weight in GL261 glioma survival study; type: in vivo, C57BL/6 mice
Method: (§3) The studies were conducted in C57BL/6 mice. GL261 glioma cells (1×10^5 in 5 μl DMEM) were implanted intracranial coordinates: bregma, lateral 2.0 mm, anterior 1.2 mm, 3.0 mm depth dura. Treatment was initiated 3 days post implantation.
FIGS. 2A-F show the weight gain in each of the C57BL/6 mice in the different treatment groups. The average weight at endpoint for each of the treatment groups is shown below in Table 12. FIG. 3 is a graph showing the average weights over a 40-day period for each of the treatment groups.

U87 = assay: brain tumor cell line growth inhibition, U87; type: cell-based; details: Homo sapiens, U-87 MG; U87, glioblastoma; astrocytoma
Method: (§4) These GI50s were determined using standard tumor growth inhibition assays.

GL261 = assay: brain tumor cell line growth inhibition, GL261; type: cell-based; details: GL261, mouse glioblastoma
Method: as §4

Daoy = assay: brain tumor cell line growth inhibition, Daoy; type: cell-based; details: Homo sapiens, desmoplastic cerebellar medulloblastoma
Method: as §4

LN-18 = assay: brain tumor cell line growth inhibition, LN-18; type: cell-based; details: Homo sapiens; LN-18, glioblastoma; glioma
Method: as §4

SK-N-FI = assay: brain tumor cell line growth inhibition, SK-N-FI; type: cell-based; details: Homo sapiens, neuroblastoma
Method: as §4

SK-N-MC = assay: brain tumor cell line growth inhibition, SK-N-MC; type: cell-based; details: Homo sapiens, neuroepithelioma
Method: as §4

SW1088 = assay: brain tumor cell line growth inhibition, SW1088; type: cell-based; details: Homo sapiens; SW1088, astrocytoma
Method: as §4

HT29 cell line = assay: BrdU cell growth inhibition assay, HT-29; type: cell-based; details: Homo sapiens
Method: as §2
The HT29 cell line is a NCI standard human colon carcinoma cell line. […] HT29 cells were routinely cultured in McCoy's 5A medium supplemented with Fetal Bovine Serum (1.5% v/v) and L-glutamine (2 mM).
In the BrdU Assay for cell growth inhibition, quantitation of cell proliferation was based on the measurement of BrdU incorporation during DNA synthesis. The Cell Proliferation ELISA BrdU assay kit (colorimetric) was obtained from Roche Applied Science and performed as per vendor instructions.
The growth inhibition (GI) is determined from the formula GI=(T0−Tn×100/T0−CONn) where T0 is the BrdU growth of untreated cells at time “0”, Tn is the BrdU growth of treated cells at day “n” and CONn is the control BrdU growth of control cells at day “n”. The GI50 was extrapolated and the data plotted using XL-Fit 4.0 software.
For 96 well culture plate experiments, c-Src 3T3 medium was supplemented with 10 mM HEPES buffer. […]
Seeded 96 well plates were allowed to attach overnight for 18-24 hours, either at 37° C. and 5% CO2 for HT-29 or at 37° C. and 10% CO2 for c-Src 3T3. Approx 18-24 hours after seeding, the initial growth of cells (T0) was determined for untreated cells using the BrdU assay. […] Plates were assayed for BrdU and the data analyzed as above for GI50. […]

GL261 glioma = assay: intracranial GL261 glioma survival study; type: in vivo, C57BL/6 mice; details: 5 mg/kg weekly oral
Method: as §3
The median survival range and the log-rank (Mantel-Cox) statistical test results comparing the survival distributions of the samples.

O=C(Cc1ccc(-c2ccccc2)cc1)NCc1cccc(F)c1 [Compound 2]
GI50 [1]: 890 nM
GI50 [2]: 410 nM

O=C(Cc1ccc(-c2ccc(OCCN3CCOCC3)cc2)cn1)NCc1cccc(F)c1 [Compound 38]
GI50 (c-Src 3T3) (c-Src 3T3 cells): inactive

O=C(Cc1ccc(-c2ccc(OCCN3CCOCC3)cc2)cn1)NCc1ccccc1 [Compound 134, 2-(5-(4-(2-morpholinoethoxy)phenyl)pyridin-2-yl)-N-benzylacetamide]
Average weight at endpoint ([3]; 5 mg/kg (Compound 134, bid)): 14.3 g
IC50 (U87): 33.1 nM
IC50 (GL261): 13.7 nM
IC50 (Daoy): 13.6 nM
IC50 (LN-18): 14.5 nM
IC50 (SK-N-FI): 1.7 nM
IC50 (SK-N-MC): 5.8 nM
IC50 (SW1088): 76.1 nM

CN1CCN(CCOc2ccc(-c3ccc(CC(=O)NCc4cccc(F)c4)nc3)c(F)c2)CC1 [Compound 137]
GI50 (HT29 cell line): 26 nM

Cn1nnc2c(C(N)=O)ncn2c1=O [Temodar ®, reference compound]
Average weight at endpoint ([3]; 5 mg/kg (Temodar, once weekly)): 13.3 g
Median survival (GL261 glioma): 29
survival Range (GL261 glioma): 26-29
